# Test results published in paper PMC10403534, “XCP1 cleaves Pathogenesis-related protein 1 into CAPE9 for systemic immunity in Arabidopsis” (Nature Communications, 2023).
# Molecular target: T1, XCP1-His (Arabidopsis thaliana, UniProt O65493)
# T1 construct: C-terminal 6xHis tag kept; from Arabidopsis cDNA; transiently expressed in Nicotiana benthamiana leaves with P19, Ni-NTA purified
# Test: inhibition of Ac-CNYD-AMC cleavage, […] h preincubation, […] h incubation
# Type: biochemical
# Conditions: 1 ug enzyme, 25 uM Ac-CNYD-AMC; covalent
# T1 sequence (O65493 137-355): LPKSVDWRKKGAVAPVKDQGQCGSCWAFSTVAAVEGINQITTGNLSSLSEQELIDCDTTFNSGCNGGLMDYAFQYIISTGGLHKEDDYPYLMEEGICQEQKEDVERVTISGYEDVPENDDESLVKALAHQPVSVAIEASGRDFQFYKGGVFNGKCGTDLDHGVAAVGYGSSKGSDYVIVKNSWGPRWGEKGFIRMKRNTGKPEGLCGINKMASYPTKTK
compound,measurement,value
CC(C)C[C@H](NC(=O)[C@H]1O[C@@H]1C(=O)O)C(=O)NCCCCNC(=N)N [E-64],"inhibition of Ac-CNYD-AMC cleavage, 1 h preincubation, 10 h incubation",CNYDase activity of purified XCP1-His was enhanced by CaCl2 and inhibited by ZnCl2 and E-64
